# Results: ChEMBL document CHEMBL3739380, “Discovery of benzothiazoles as antimycobacterial agents: Synthesis, structure-activity relationships and binding studies with Mycobacterium tuberculosis decaprenylphosphoryl-β-D-ribose 2'-oxidase” (Bioorg Med Chem, 2015)
# Tests used:
# [1] = tested on: Mycobacterium tuberculosis; assay: Antimycobacterial activity against Mycobacterium tuberculosis H37Rv ATCC 27294 after 5 days by microdilution method; format: functional; conditions: H37Rv ATCC 27294, 120 h
# [2] = Inhibition of Mycobacterium tuberculosis DprE1 using farnesyl-phosphoryl-beta-D-ribofuranose as substrate preincubated for 30 mins before substrate addition by peroxidase coupled assay
# [3] = tested on: Mycobacterium tuberculosis; assay: Antimycobacterial activity against Mycobacterium tuberculosis H37Rv ATCC 27294 infected in BMDM assessed as log reduction CFU after 7 days by killing kinetic assay; format: functional
# [4] = tested on: Mycobacterium tuberculosis; assay: Antimycobacterial activity against Mycobacterium tuberculosis H37Rv ATCC 27294 infected in human THP1 cells assessed as log reduction CFU after 7 days by killing kinetic assay; format: functional, THP-1
# [5] = tested on: Mycobacterium tuberculosis; assay: Antimycobacterial activity against Mycobacterium tuberculosis H37Rv ATCC 27294 after 2 to 3 weeks by turbidity assay; format: functional
# [6] = tested on: Mycobacterium tuberculosis; assay: Antimycobacterial activity against Mycobacterium tuberculosis H37Rv ATCC 27294 assessed as log reduction CFU after 7 days by killing kinetic assay; format: functional
# Salmonella typhimurium [7] = assay: Genotoxicity in Salmonella typhimurium TA100 at 50 ug/plate by Ames test in absence of S9 fraction; format: toxicity, organism-based; conditions: salmonella enterica subsp. enterica serovar typhimurium
# Salmonella typhimurium [8] = assay: Genotoxicity in Salmonella typhimurium TA98 at 50 ug/plate by Ames test in presence of S9 fraction; format: toxicity, organism-based; conditions: salmonella enterica subsp. enterica serovar typhimurium
# Salmonella typhimurium [9] = assay: Genotoxicity in Salmonella typhimurium TA100 at 16 ug/plate by Ames test in presence of S9 fraction; format: toxicity, organism-based; conditions: salmonella enterica subsp. enterica serovar typhimurium
# Salmonella typhimurium [10] = assay: Genotoxicity in Salmonella typhimurium TA98 at 160 ug/plate by Ames test in absence of S9 fraction; format: toxicity, organism-based; conditions: salmonella enterica subsp. enterica serovar typhimurium
# Salmonella typhimurium [11] = assay: Genotoxicity in Salmonella typhimurium TA98 at 500 ug/plate by Ames test in absence of S9 fraction; format: toxicity, organism-based; conditions: salmonella enterica subsp. enterica serovar typhimurium
# Salmonella typhimurium [12] = assay: Genotoxicity in Salmonella typhimurium TA98 at 500 ug/plate by Ames test in presence of S9 fraction; format: toxicity, organism-based; conditions: salmonella enterica subsp. enterica serovar typhimurium
# Salmonella typhimurium [13] = assay: Genotoxicity in Salmonella typhimurium TA98 at 5000 ug/plate by Ames test in absence of S9 fraction; format: toxicity, organism-based; conditions: salmonella enterica subsp. enterica serovar typhimurium
# Salmonella typhimurium [14] = assay: Genotoxicity in Salmonella typhimurium TA100 at 5000 ug/plate by Ames test in absence of S9 fraction; format: toxicity, organism-based; conditions: salmonella enterica subsp. enterica serovar typhimurium
# Salmonella typhimurium [15] = assay: Genotoxicity in Salmonella typhimurium TA98 at 5000 ug/plate by Ames test in presence of S9 fraction; format: toxicity, organism-based; conditions: salmonella enterica subsp. enterica serovar typhimurium
# Salmonella typhimurium [16] = assay: Genotoxicity in Salmonella typhimurium TA100 at 5000 ug/plate by Ames test in presence of S9 fraction; format: toxicity, organism-based; conditions: salmonella enterica subsp. enterica serovar typhimurium
# Cytochrome P450 2C9 = Cytochrome P450 2C9 (Homo sapiens, UniProt P11712); assay: Inhibition of human recombinant CYP2C9 by fluorescence assay; format: ADME
# Cytochrome P450 1A2 = molecular target: T1, Cytochrome P450 1A2 (Homo sapiens, UniProt P05177); assay: Inhibition of human recombinant CYP1A2 by fluorescence assay; format: ADME
# T1 sequence (P05177 whole entry): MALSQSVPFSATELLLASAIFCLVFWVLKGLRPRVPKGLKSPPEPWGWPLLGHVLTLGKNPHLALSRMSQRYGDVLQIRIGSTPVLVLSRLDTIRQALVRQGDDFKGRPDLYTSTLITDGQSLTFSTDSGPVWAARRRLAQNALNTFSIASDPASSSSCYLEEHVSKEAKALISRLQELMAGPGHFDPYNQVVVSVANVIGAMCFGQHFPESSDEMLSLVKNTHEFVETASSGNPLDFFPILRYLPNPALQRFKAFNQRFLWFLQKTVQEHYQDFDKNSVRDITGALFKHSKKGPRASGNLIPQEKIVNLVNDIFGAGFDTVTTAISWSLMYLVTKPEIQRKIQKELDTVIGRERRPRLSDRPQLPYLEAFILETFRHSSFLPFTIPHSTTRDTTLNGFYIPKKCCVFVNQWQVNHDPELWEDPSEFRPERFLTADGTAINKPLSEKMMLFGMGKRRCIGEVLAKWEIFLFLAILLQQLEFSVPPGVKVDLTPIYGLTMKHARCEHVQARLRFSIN
# Cytochrome P450 2D6 = Cytochrome P450 2D6 (Homo sapiens, UniProt P10635); assay: Inhibition of human recombinant CYP2D6 by fluorescence assay; format: ADME
# Cytochrome P450 2C19 = Cytochrome P450 2C19 (Homo sapiens, UniProt P33261); assay: Inhibition of human recombinant CYP2C19 by fluorescence assay; format: ADME
# Cytochrome P450 3A4 = Cytochrome P450 3A4 (Homo sapiens, UniProt P08684); assay: Inhibition of human recombinant CYP3A4 by fluorescence assay; format: ADME
# A549 = assay: Cytotoxicity against human A549 cells after 72 hrs by fluorescence assay; format: cell-based; conditions: A549, 72 h
# [17] = Aqueous solubility of the compound; format: physicochemical; conditions: buffer
# [18] = Fraction unbound in mouse plasma protein; format: ADME, cell-free
# [19] = Intrinsic clearance in mouse liver microsomes; format: ADME; conditions: read-out: CLH
# [20] = Clearance in iv dosed mouse; format: ADME, organism-based; conditions: in vivo
# [21] = AUC100 in po dosed mouse; format: ADME, organism-based; conditions: in vivo
# [22] = Volume of distribution at steady state in mouse; format: ADME, organism-based; conditions: in vivo, read-out: Vdss
# Sequence of Cytochrome P450 3A4 (P08684 whole entry): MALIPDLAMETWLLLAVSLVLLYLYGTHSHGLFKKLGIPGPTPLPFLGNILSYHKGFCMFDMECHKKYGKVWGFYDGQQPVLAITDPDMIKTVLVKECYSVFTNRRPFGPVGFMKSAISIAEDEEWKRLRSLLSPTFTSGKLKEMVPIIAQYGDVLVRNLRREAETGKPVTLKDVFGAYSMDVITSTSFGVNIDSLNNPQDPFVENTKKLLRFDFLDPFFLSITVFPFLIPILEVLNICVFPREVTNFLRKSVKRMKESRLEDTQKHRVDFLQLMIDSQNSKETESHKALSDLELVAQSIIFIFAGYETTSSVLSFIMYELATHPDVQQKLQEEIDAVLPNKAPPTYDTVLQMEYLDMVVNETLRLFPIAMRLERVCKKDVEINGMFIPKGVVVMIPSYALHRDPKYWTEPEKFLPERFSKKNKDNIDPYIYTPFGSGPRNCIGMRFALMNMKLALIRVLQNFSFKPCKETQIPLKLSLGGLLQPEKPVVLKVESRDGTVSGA
# Sequence of Cytochrome P450 2D6 (P10635 whole entry): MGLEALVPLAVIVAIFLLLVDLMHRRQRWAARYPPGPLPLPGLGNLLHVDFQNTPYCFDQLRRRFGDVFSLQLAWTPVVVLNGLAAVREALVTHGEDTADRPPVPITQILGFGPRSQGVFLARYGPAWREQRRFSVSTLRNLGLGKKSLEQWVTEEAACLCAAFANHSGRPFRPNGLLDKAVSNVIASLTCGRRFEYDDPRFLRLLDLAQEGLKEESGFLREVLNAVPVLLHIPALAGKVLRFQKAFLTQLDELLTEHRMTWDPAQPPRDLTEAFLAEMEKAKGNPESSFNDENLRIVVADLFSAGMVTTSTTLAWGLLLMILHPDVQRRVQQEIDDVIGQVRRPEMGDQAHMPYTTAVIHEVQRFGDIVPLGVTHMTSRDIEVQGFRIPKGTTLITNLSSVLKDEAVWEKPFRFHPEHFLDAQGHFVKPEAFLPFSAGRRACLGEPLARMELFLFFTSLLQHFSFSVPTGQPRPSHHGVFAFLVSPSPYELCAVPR
# Sequence of Cytochrome P450 2C9 (P11712 whole entry): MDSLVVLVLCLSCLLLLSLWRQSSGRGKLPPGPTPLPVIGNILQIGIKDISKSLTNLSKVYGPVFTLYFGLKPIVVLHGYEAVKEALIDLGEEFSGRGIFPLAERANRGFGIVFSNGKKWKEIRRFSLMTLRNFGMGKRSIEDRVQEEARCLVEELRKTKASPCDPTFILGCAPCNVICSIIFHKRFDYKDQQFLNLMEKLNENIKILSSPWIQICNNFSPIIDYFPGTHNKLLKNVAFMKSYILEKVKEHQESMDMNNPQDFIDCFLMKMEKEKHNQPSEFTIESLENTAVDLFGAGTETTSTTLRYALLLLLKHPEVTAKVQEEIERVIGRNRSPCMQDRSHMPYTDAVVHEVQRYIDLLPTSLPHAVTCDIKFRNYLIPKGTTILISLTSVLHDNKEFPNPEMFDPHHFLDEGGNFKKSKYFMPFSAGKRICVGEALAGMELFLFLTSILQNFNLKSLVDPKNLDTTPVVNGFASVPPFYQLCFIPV
# Sequence of Cytochrome P450 2C19 (P33261 whole entry): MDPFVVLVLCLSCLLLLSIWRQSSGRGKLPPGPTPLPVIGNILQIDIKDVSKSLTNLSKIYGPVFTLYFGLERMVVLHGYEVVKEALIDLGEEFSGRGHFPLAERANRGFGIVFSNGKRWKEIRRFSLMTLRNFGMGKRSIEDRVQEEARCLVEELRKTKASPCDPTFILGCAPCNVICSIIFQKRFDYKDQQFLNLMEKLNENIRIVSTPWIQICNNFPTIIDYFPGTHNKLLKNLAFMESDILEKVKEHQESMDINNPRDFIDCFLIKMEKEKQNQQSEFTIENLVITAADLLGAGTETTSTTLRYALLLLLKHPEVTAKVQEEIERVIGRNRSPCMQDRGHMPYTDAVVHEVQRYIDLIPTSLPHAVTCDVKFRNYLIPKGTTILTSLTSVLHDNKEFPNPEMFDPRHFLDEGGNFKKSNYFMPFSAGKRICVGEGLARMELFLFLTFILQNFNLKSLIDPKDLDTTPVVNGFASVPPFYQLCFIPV
structure (smiles),measurement,setting,value
O=C(c1nc2cc(C(F)(F)F)cc(B(O)O)c2s1)N1CCCCC1,MIC,[1],> 32 µg/mL
O=[N+]([O-])c1cc(C(F)(F)F)cc2nc(CN3CCOCC3)sc12,IC50,[2],5200 nM
same,MIC,[1],> 32 µg/mL
N#Cc1cc([N+](=O)[O-])c2sc(C(=O)N3CCCCC3)nc2c1,IC50,[2],1800 nM
same,MIC,[1],1 µg/mL
Cc1c(C(F)(F)F)cc2nc(C(=O)N[C@@H](CO)C(=O)N3CCCC3)sc2c1[N+](=O)[O-],IC50,[2],1200 nM
same,MIC,[1],1 µg/mL
Cc1c(C(F)(F)F)cc2nc(C(=O)NCc3ccccn3)sc2c1[N+](=O)[O-],IC50,[2],1200 nM
same,MIC,[1],0.3 µg/mL
Cc1c(C(F)(F)F)cc2nc(C(=O)N[C@@H](CCO)C(=O)N3CCCCC3)sc2c1[N+](=O)[O-],IC50,[2],1200 nM
same,MIC,[1],0.7 µg/mL
same,Activity,[3],1 log10CFU/ml
same,Activity,[4],1 log10CFU/ml
O=C(NCc1ccccn1)c1nc2cc(C(F)(F)F)cc([N+](=O)[O-])c2s1,IC50,[2],452 nM
same,MIC,[1],0.6 µg/mL
same,MIC,[5],0.12 µg/mL
same,Activity,[6],2.5 log10CFU/ml
same,Activity,[3],1 log10CFU/ml
same,Activity,[4],1 log10CFU/ml
O=[N+]([O-])c1cc(C(F)(F)F)cc2c1sc(C1=NCCO1)[n+]2[O-],IC50,[2],276 nM
same,MIC,[1],0.4 µg/mL
same,Activity,Salmonella typhimurium [7],Toxic
same,Activity,Salmonella typhimurium [8],Toxic
same,Activity,Salmonella typhimurium [9],Toxic
same,Activity,Salmonella typhimurium [10],Toxic
O=C(c1nc2cc(C(F)(F)F)cc([N+](=O)[O-])c2s1)N1CCCCC1,IC50,[2],213 nM
same,MIC,[1],0.7 µg/mL
same,Activity,Salmonella typhimurium [7],Toxic
same,Activity,Salmonella typhimurium [9],Toxic
same,Activity,Salmonella typhimurium [11],Toxic
same,Activity,Salmonella typhimurium [12],Toxic
Cc1c(C(F)(F)F)cc2nc(C(=O)N3CCCCC3)sc2c1[N+](=O)[O-],IC50,[2],2200 nM
same,MIC,[1],0.25 µg/mL
same,MIC,[5],0.5 µg/mL
same,Activity,Salmonella typhimurium [13],Non-toxic
same,Activity,Salmonella typhimurium [14],Non-toxic
same,Activity,Salmonella typhimurium [15],Non-toxic
same,Activity,Salmonella typhimurium [16],Non-toxic
O=C(NCc1ccccn1)c1nc2cc(C(F)(F)F)ccc2s1,IC50,[2],> 100000 nM
same,MIC,[1],> 32 µg/mL
O=C(NCc1ccccn1)c1sc2c([N+](=O)[O-])cc(C(F)(F)F)cc2[n+]1[O-],IC50,[2],26 nM
same,MIC,[1],0.02 µg/mL
same,MIC,[5],0.01 µg/mL
same,Activity,[6],2.5 log10CFU/ml
O=C(O)c1cc(C(F)(F)F)cc2nc(C(=O)N3CCCCC3)sc12,IC50,[2],> 100000 nM
same,MIC,[1],> 32 µg/mL
COCCN1CCN(C(=O)c2nc3cc(C(F)(F)F)c(C)c([N+](=O)[O-])c3s2)CC1,IC50,Cytochrome P450 2C9,Not Active
same,IC50,Cytochrome P450 1A2,9.56 µM
same,IC50,[2],1700 nM
same,MIC,[1],2 µg/mL
same,IC50,Cytochrome P450 2D6,58.6 µM
same,IC50,Cytochrome P450 2C19,64.9 µM
same,IC50,Cytochrome P450 3A4,95 µM
same,IC50,A549,100 µM
same,solubility,[17],73 µM
same,fraction unbound,[18],0.043
same,microsomal CLint,[19],< 4 µL/min/mg
same,clearance,[20],146 mL/min/kg
same,AUC,[21],570 ng·h/mL
same,Vd,[22],24.5 L/kg
same,MIC,[5],2 µg/mL
same,Activity,Salmonella typhimurium [13],Non-toxic
same,Activity,Salmonella typhimurium [14],Non-toxic
same,Activity,Salmonella typhimurium [15],Non-toxic
same,Activity,Salmonella typhimurium [16],Non-toxic
Cc1c(C(F)(F)F)cc2nc(C3=NCCO3)sc2c1[N+](=O)[O-],IC50,[2],3900 nM
same,MIC,[1],8 µg/mL
same,Activity,Salmonella typhimurium [13],Non-toxic
same,Activity,Salmonella typhimurium [14],Non-toxic
same,Activity,Salmonella typhimurium [15],Non-toxic
same,Activity,Salmonella typhimurium [16],Non-toxic
O=C(c1sc2c([N+](=O)[O-])cc(C(F)(F)F)cc2[n+]1[O-])N1CCCCC1,IC50,Cytochrome P450 2C9; read-out: IC50,26.6 µM
same,IC50,Cytochrome P450 1A2,14.7 µM
same,IC50,[2],95 nM
same,MIC,[1],0.03 µg/mL
same,IC50,Cytochrome P450 2D6,1.21 µM
same,IC50,Cytochrome P450 2C19,17.7 µM
same,IC50,Cytochrome P450 3A4,3.91 µM
same,IC50,A549,24 µM
same,solubility,[17],84.7 µM
same,fraction unbound,[18],0.103
same,microsomal CLint,[19],102 µL/min/mg
same,Activity,Salmonella typhimurium [7],Toxic
same,Activity,Salmonella typhimurium [8],Toxic
same,Activity,Salmonella typhimurium [9],Toxic
same,Activity,Salmonella typhimurium [10],Toxic
COCCN1CCN(C(=O)c2nc3cc(C(F)(F)F)cc([N+](=O)[O-])c3s2)CC1,IC50,Cytochrome P450 2C9,Not Active
same,IC50,Cytochrome P450 1A2,17.9 µM
same,IC50,[2],247 nM
same,MIC,[1],0.21 µg/mL
same,IC50,Cytochrome P450 2D6,5.24 µM
same,IC50,Cytochrome P450 2C19,55.9 µM
same,IC50,Cytochrome P450 3A4,19.5 µM
same,IC50,A549,90 µM
same,solubility,[17],331 µM
same,fraction unbound,[18],0.061
same,microsomal CLint,[19],25 µL/min/mg
same,Activity,Salmonella typhimurium [7],Toxic
same,Activity,Salmonella typhimurium [9],Toxic
same,Activity,Salmonella typhimurium [11],Toxic
same,Activity,Salmonella typhimurium [12],Toxic
O=C(N[C@@H](CO)C(=O)N1CCCC1)c1nc2cc(C(F)(F)F)cc([N+](=O)[O-])c2s1,IC50,[2],349 nM
same,MIC,[1],0.35 µg/mL
O=C(c1nc2cc(C(F)(F)F)cc(-[n+]3cc([O-])on3)c2s1)N1CCCCC1,IC50,[2],28200 nM
same,MIC,[1],32 µg/mL
C[C@H](NC(=O)c1sc2c([N+](=O)[O-])cc(C(F)(F)F)cc2[n+]1[O-])C(=O)C1CCCC1,IC50,[2],60 nM
same,MIC,[1],0.02 µg/mL
same,Activity,[3],1 log10CFU/ml
same,Activity,[4],1 log10CFU/ml
CNC(=O)c1cc([N+](=O)[O-])c2sc(C(=O)N3CCCCC3)nc2c1,IC50,[2],53000 nM
same,MIC,[1],32 µg/mL
N#Cc1cc(C(F)(F)F)cc2nc(C(=O)N3CCCCC3)sc12,MIC,[1],> 32 µg/mL
O=C(c1nc2cc(C(F)(F)F)cc([N+](=O)[O-])c2s1)N1CCOCC1,IC50,[2],300 nM
same,MIC,[1],0.1 µg/mL
